{
  "source": "patent US20220332836A1",
  "about": "“A METHOD FOR PREVENTING HUMAN VIRUS ASSOCIATED DISORDERS IN PATIENTS” (NOVARTIS AG, priority 2019, published 2022)",
  "key": {"[1]": {"tested_on": "PBMC incubated with EBV supernatant", "test": "EBV regression assay with PBMC", "type": "cell-based, human", "procedure": "Buffy coats from six healthy volunteers (18-001 to 18-006) were received from Blutspendezentrum Bern. Peripheral blood mononuclear cells (PBMC) were isolated using LeucoSep tubes following manufacturer's instructions, counted with TC20 and adjusted in cell culture medium (Medium, buffers and reagents). All conditions (see Table 3-2) were run in five replicates in 96-well U-bottom plates and contained 2×10^5 cells/well. PBMC were incubated for 10-15 minutes at 37° C. before adding cell culture medium containing EBV-supernatant and transferrin (see Medium, buffers and reagents). […] Cell pellets were stained and analyzed by flow cytometry (FACS staining procedure).\nIn FIG. 1, the gating strategy is shown."}, "[2]": {"tested_on": "EBV-seronegative EBV-B cell/T cell co-cultures", "test": "EBV-B cell/T cell co-culture, EBV-seronegative donors", "type": "cell-based, human"}, "[3]": {"tested_on": "EBV-seropositive EBV-B cell/T cell co-cultures", "test": "EBV-B cell/T cell co-culture, EBV-seropositive donors"}, "human CD40": {"molecular_target": "T1, human CD40 (human, UniProt P25942 21-193, limits assumed)", "T1 construct": "also called tumor necrosis factor receptor superfamily member 5", "T1 sequence (P25942 21-193 limits assumed)": "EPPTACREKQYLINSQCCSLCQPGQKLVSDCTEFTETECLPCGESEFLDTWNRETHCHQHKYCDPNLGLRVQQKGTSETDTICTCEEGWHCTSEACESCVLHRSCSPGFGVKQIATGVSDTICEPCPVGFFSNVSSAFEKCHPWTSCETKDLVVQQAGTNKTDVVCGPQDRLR", "test": "method not stated"}, "[4]": {"tested_on": "NK cell-depleted PBMC cultures", "test": "EBV regression assay, complete or NK cell-depleted PBMC", "type": "cell-based, human", "details": "14 days", "description": "(§1) FIG. 16 provides CD3^+ T cell counts from the NK cell-depleted PBMC regression assay after 14 days of culture measured by flow cytometry. Antibodies (in μg/mL) and CsA (in μM) were given in combination with EBV supernatants (except the negative control=medium w/o EBV). Dotted horizontal line was set to the condition ‘medium+EBV’. Data are shown as mean+SEM (n=4).\nas §1, with “17” for “16”, “CD19^+ B cell counts from the PBMC regression assay after 14 days of culture measured by flow cytometry. Antibodies (in μg/mL) and CsA (in μM) were given in combination with EBV supernatants (except the negative control=medium w/o EBV). Dotted horizontal line was set to the condition ‘medium+EBV’. Data are shown as mean+SEM (n=4); and CD19^+ B” for “CD3^+ T”\nAll conditions except ‘medium w/o EBV’ were incubated with EBV supernatant and respective compound or antibodies. […] Looking at the CD19+ B cell proliferation (FIG. 3), there was an obvious increase in CD19+ B cell counts when PBMC were incubated with EBV supernatant compared to PBMC cultured with medium only (medium w/o EBV). […]"}, "[5]": {"details": "14 days, CsA 0.1, 1 μM, Belatacept 10, 50 μg/mL, CFZ533, hIgG1 10-200 μg/mL, vs medium+EBV"}, "[6]": {"details": "10-200 μg/mL, priming, recall, priming and recall, 11 days"}},
  "data": [
    {"molecule": "Belatacept: CTLA4-Ig fusion protein; blocks CD80/CD86 and thereby inhibits T cell costimulation", "values": [
      {"measurement": "CD3+ T cell counts", "setting": "[1]; [5]", "value": "to a lesser degree than with CsA"},
      {"measurement": "CD19+ B cell counts", "setting": "[1]; [5]", "value": "increase"},
      {"measurement": "T cell activity (resulting in over-growth of in vitro immortalized cells)", "setting": "[1]; EBV regression assay", "value": "reduced"},
      {"measurement": "CD4+ T cell proliferation, differences between the four doses", "setting": "[2]; 10, 50, 100 and 200 μg/mL", "value": "no evident differences"},
      {"measurement": "CD4+ T cell proliferation", "setting": "[2]; 10-200 μg/mL, all three conditions", "value": "reduced"},
      {"measurement": "CD3+ T cell proliferation", "setting": "[2]; [6]", "value": "reduced"},
      {"measurement": "CD8+ T cell proliferation", "setting": "[2]; 10 and 50 μg/mL, recall only and priming and recall", "value": "only a reducing effect"},
      {"measurement": "CD3+ T cell proliferation", "setting": "[2]; 100 and 200 μg/mL, priming and recall condition", "value": "only a reducing effect"},
      {"measurement": "CD3+ T cell proliferation", "setting": "[2]; 100 and 200 μg/mL, priming or recall only condition", "value": "only minor"},
      {"measurement": "CD8+ T cell proliferation", "setting": "[2]; 100 and 200 μg/mL, priming phase only", "value": "increased"},
      {"measurement": "CD3+ T cell proliferation, 10 and 50 μg/mL versus 100 and 200 μg/mL", "setting": "[2]; all three conditions", "value": "slightly stronger but not significant suppression pattern"},
      {"measurement": "CD3+ T cell proliferation", "setting": "[3]; [6]", "value": "reduced"},
      {"measurement": "CD4+ T cell proliferation", "setting": "[3]; [6]", "value": "reduced"},
      {"measurement": "CD3+ T cell proliferation", "setting": "[3]; 100 and 200 μg/mL", "value": "only an reducing effect on the T cell proliferation at the ‘priming and recall’ phase"},
      {"measurement": "CD4+ T cell proliferation", "setting": "[3]; 100 and 200 μg/mL, priming and recall phase", "value": "robust reducing effect"},
      {"measurement": "CD3+ T cell proliferation, 10 and 50 μg/mL versus 100 and 200 μg/mL", "setting": "[3]; all three conditions", "value": "slightly stronger but not significant suppression pattern"},
      {"measurement": "CD4+ T cell proliferation, 10 and 50 μg/mL versus 100 and 200 μg/mL", "setting": "[3]; all three conditions", "value": "slightly stronger but not significant suppression pattern"},
      {"measurement": "EBV-mediated T cell proliferation and IFNγ secretion in presence of EBV-B cells", "setting": "[3]; co-culture system, EBV-B cells sero-positive and sero-negative", "value": "reduced"}
    ]},
    {"molecule": "mAb1 (antibody, human IgG1, kappa, N297A, V domains shown, also called CFZ533; Iscalimab) VH: QVQLVESGGGVVQPGRSLRLSCAASGFTFSSYGMHWVRQAPGKGLEWVAVISYEESNRYHADSVKGRFTISRDNSKITLYLQMNSLRTEDTAVYYCARDGGIAAPGPDYWGQGTLVTVSS VL: DIVMTQSPLSLTVTPGEPASISCRSSQSLLYSNGYNYLDWYLQKPGQSPQVLISLGSNRASGVPDRFSGSGSGTDFTLKISRVEAEDVGVYYCMQARQTPFTFGPGTKVDIRR", "values": [
      {"measurement": "Kd", "setting": "human CD40", "value": 0.3, "unit": "nM"}
    ]},
    {"molecule": "HCD122: a depleting CD40 mAb as positive control (antibody, chains of the INN, looked up, V domains shown) VH: QVQLVESGGGVVQPGRSLRLSCAASGFTFSSYGMHWVRQAPGKGLEWVAVISYEESNRYHADSVKGRFTISRDNSKITLYLQMNSLRTEDTAVYYCARDGGIAAPGPDYWGQGTLVTVSS VL: DIVMTQSPLSLTVTPGEPASISCRSSQSLLYSNGYNYLDWYLQKPGQSPQVLISLGSNRASGVPDRFSGSGSGTDFTLKISRVEAEDVGVYYCMQARQTPFTFGPGTKVDIR", "values": [
      {"measurement": "CD19+ B cell counts", "setting": "[4]", "value": "did deplete B cells"}
    ]}
  ]
}
